Measured values taken from the supplement of paper PMC10307832.

Experiments:
Test in all cases: relative viability (nuclei count vs DMSO), 5 days (fraction); higher = more cells survive
Ricolinostat + AZD7762 = compound: O=C(CCCCCCNC(=O)c1cnc(N(c2ccccc2)c2ccccc2)nc1)NO [Ricolinostat] + NC(=O)Nc1cc(-c2cccc(F)c2)sc1C(=O)N[C@H]1CCCNC1 [AZD7762] (partner 0.2 µM)
In short: (§1)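 Cells from lung cancer lines were seeded into 1536-well plates and, one day later, dosed by pin tool. Treatments were either a single drug or a fixed dose of an anchor drug with five library-drug doses (not always all listed) in √10 steps. After 5 days, nuclei were stained in a one-step fixation (final 0.05% Triton X-100, 1% formaldehyde, 1 ug/ml Hoechst) and counted on 4× images, and relative viability is the treated-to-vehicle nuclei ratio, as the median of duplicate plates.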

TGX 221 + Luminespib = compound: CC1=CN2C(=O)C=C(N=C2C(=C1)C(C)NC3=CC=CC=C3)N4CCOCC4 [TGX 221] + CCNC(=O)c1noc(-c2cc(C(C)C)c(O)cc2O)c1-c1ccc(CN2CCOCC2)cc1 [Luminespib] (partner 0.01 µM)
In short: as §1

TGX 221 + Foretinib = compound: CC1=CN2C(=O)C=C(N=C2C(=C1)C(C)NC3=CC=CC=C3)N4CCOCC4 [TGX 221] + COc1cc2c(Oc3ccc(NC(=O)C4(C(=O)Nc5ccc(F)cc5)CC4)cc3F)ccnc2cc1OCCCN1CCOCC1 [Foretinib] (partner 0.25 µM)
In short: as §1

[1] = compound: C1=CC=C(C(=C1)C2=CC=C(C=C2)C3=CSC4=C3C(=C(C(=O)N4)C#N)O)O + COc1cc2c(Oc3ccc(NC(=O)C4(C(=O)Nc5ccc(F)cc5)CC4)cc3F)ccnc2cc1OCCCN1CCOCC1 [Foretinib] (partner 0.25 µM)
In short: as §1

| Cell Line | relative viability (Ricolinostat + AZD7762; first compound 0.08 µM) | relative viability (Ricolinostat + AZD7762; first compound 0.253 µM) | relative viability (Ricolinostat + AZD7762; first compound 0.8 µM) | relative viability (Ricolinostat + AZD7762; first compound 2.53 µM) | relative viability (TGX 221 + Luminespib; first compound 0.08 µM) | relative viability (TGX 221 + Luminespib; first compound 0.253 µM) | relative viability (TGX 221 + Luminespib; first compound 0.8 µM) | relative viability (TGX 221 + Luminespib; first compound 2.53 µM) | relative viability (TGX 221 + Luminespib; first compound 8 µM) | relative viability (TGX 221 + Foretinib; first compound 0.08 µM) | relative viability (TGX 221 + Foretinib; first compound 0.253 µM) | relative viability (TGX 221 + Foretinib; first compound 0.8 µM) | relative viability (TGX 221 + Foretinib; first compound 2.53 µM) | relative viability (TGX 221 + Foretinib; first compound 8 µM) | relative viability ([1]; first compound 0.08 µM) | relative viability ([1]; first compound 0.253 µM) | relative viability ([1]; first compound 0.8 µM) | relative viability ([1]; first compound 2.53 µM) | relative viability ([1]; first compound 8 µM) |
| --- | --- | --- | --- | --- | --- | --- | --- | --- | --- | --- | --- | --- | --- | --- | --- | --- | --- | --- | --- |
| NCI-H1651 | 0.429 | 0.485 | 0.367 | 0.302 | 0.828 | 0.653 | 0.741 | 0.592 | 0.568 | 0.768 | 0.611 | 0.729 | 0.586 | 0.609 | 0.848 | 0.774 | 0.924 | 0.76 | 0.714 |
| NCI-H1666 | 0.705 | 0.886 | 0.714 | 0.768 | 1.08 | 0.977 | 1.03 | 1.02 | 0.975 | 1.06 | 0.902 | 0.951 | 0.963 | 0.922 | 1 | 0.976 | 0.95 | 1.01 | 0.916 |
| NCI-H1734 | 0.45 | 0.68 | 0.372 | 0.235 | 0.232 | 0.178 | 0.202 | 0.17 | 0.18 | 0.781 | 0.81 | 0.799 | 0.732 | 0.764 | 0.783 | 0.803 | 0.899 | 0.971 | 0.738 |
| NCI-H1755 | 0.38 | 0.444 | 0.439 | 0.422 | 0.441 | 0.65 | 0.33 | 0.394 | 0.258 | 0.926 | 0.884 | 0.82 | 0.763 | 0.781 | 0.966 | 0.924 | 0.89 | 0.929 | 0.95 |
| NCI-H1793 | 0.387 | 0.414 | 0.314 | 0.206 | 0.198 | 0.265 | 0.174 | 0.127 | 0.155 | 0.708 | 0.462 | 0.51 | 0.452 | 0.411 | 0.623 | 0.673 | 0.691 | 0.595 | 0.555 |
| NCI-H1915 | 0.652 | 0.653 | 0.685 | 0.573 | 0.726 | 0.747 | 0.745 | 0.757 | 0.725 | 0.941 | 1.07 | 1.08 | 1.04 | 1.05 | 1.12 | 1.24 |  | 1.08 | 0.747 |
| NCI-H1944 | 0.463 | 0.483 | 0.354 | 0.21 | 0.649 | 0.742 | 0.795 | 0.587 | 0.399 | 0.844 | 0.819 | 0.873 | 0.746 | 0.612 | 0.88 | 0.863 | 0.987 | 0.935 | 0.904 |
| NCI-H1975 | 0.66 | 0.768 | 0.592 | 0.705 | 0.151 | 0.2 | 0.138 | 0.2 | 0.145 | 0.862 | 0.899 | 0.965 | 0.841 | 0.797 | 0.889 | 0.822 | 0.967 | 1 | 0.84 |
| NCI-H1993 | 0.53 | 0.884 | 0.55 | 0.459 | 0.781 | 0.711 | 0.724 | 0.869 | 0.805 | 0.723 | 0.787 | 0.755 | 0.71 | 0.664 | 0.67 | 0.52 | 0.765 | 0.76 | 0.723 |
| NCI-H2085 |  | 0.912 | 0.934 | 0.784 | 0.518 | 0.361 | 0.335 | 0.223 | 0.319 | 1.06 | 0.845 | 0.96 | 0.428 | 0.401 | 1.05 | 0.9 | 0.958 | 0.852 | 0.797 |
| NCI-H2087 | 1.24 | 1.27 | 1.07 | 0.973 | 0.118 | 0.16 | 0.151 | 0.15 | 0.166 | 1.01 | 1.01 | 1.09 | 1.04 | 1.1 | 1.35 | 1.27 | 1.06 | 1.11 | 0.792 |
| NCI-H2126 | 0.865 | 1.04 | 0.971 | 0.887 | 0.909 | 0.832 | 0.842 | 0.764 | 0.808 | 1.19 | 1.11 | 1 | 1.05 | 1.05 | 1.41 | 1.22 | 1.43 | 1.15 | 1.01 |
| NCI-H2170 | 0.815 | 0.858 | 1.01 | 0.928 | 0.67 | 0.638 | 0.541 | 0.593 | 0.639 | 0.995 | 1.1 | 0.991 | 0.945 | 0.978 | 0.951 | 1.03 | 0.988 | 1.03 | 0.932 |
| NCI-H2342 | 0.413 | 0.443 | 0.531 | 0.451 | 0.919 | 0.652 | 0.584 | 0.544 | 0.607 | 1.03 | 1.02 | 1.03 | 0.903 | 0.985 | 1.01 | 1.1 | 1.1 | 1.03 | 0.856 |
| NCI-H2347 | 0.57 | 0.718 | 0.665 | 0.478 | 0.595 | 0.335 | 0.437 | 0.325 | 0.274 |  | 0.879 | 0.769 | 0.622 | 0.49 | 0.845 | 0.923 | 0.951 | 1.01 | 0.735 |
| NCI-H2405 | 0.698 | 0.781 | 0.738 | 0.76 | 0.622 | 0.533 | 0.599 | 0.623 | 0.47 | 1.01 | 0.99 | 1.04 | 0.897 | 0.863 | 1.05 | 1.04 | 1.01 | 1.01 | 0.983 |
| NCI-H3122 | 0.838 | 1.03 | 1.01 | 1.12 | 0.1 | 0.0831 | 0.0649 | 0.0793 | 0.116 | 0.967 | 0.931 | 0.957 | 0.949 | 1.01 | 0.954 | 1.05 | 1.01 | 1.06 | 0.978 |
